In US3937821A, “Plasma substitute including artificial starch and method for the preparation thereof” (Kyorin Seiyaku Kabushiki Kaisha, priority 1971, dated 1976):

Assays:
Mice [1] = conditions: mouse, in vivo
Protocol: (§1) Sera from all bleedings were analysed by passive cutaneous anaphylaxis reaction. Arthus reaction in rabbits and active anaphylaxis reaction in guinea pigs were performed too.

Mice [2] = conditions: mouse, in vivo; cited from earlier work
guinea pigs = conditions: guinea pig, in vivo
Protocol: as §1

antibodies in human sera [3] = conditions: cited from earlier work
humans = conditions: in vivo, iv
Mice [4] = conditions: mouse, in vivo; remark: listed apart in the source
Rats [5] = conditions: rat, in vivo; cited from earlier work
patients = conditions: human, in vivo; cited from earlier work
Rabbits = conditions: rabbit, in vivo
Protocol: as §1

antibodies in human sera [6] = test system: antibodies in human sera
Rats [7] = conditions: rat, in vivo

circulating antibodies (Mice [1]): circulating antibodies were detected
antibodies detectable / immunogenicity (guinea pigs): not immunogenic
antibody production (humans): do not lead to antibody production
antibodies detectable / immunogenicity (Rabbits): not immunogenic
sera positive in passive cutaneous anaphylaxis reaction (antibodies in human sera [6]): Three sera gave positive a reaction
Substance: Dextran
anaphylactoid reaction (Mice [2]): edema and erythema of paws, ears and snout
human sera contain reacting antibodies; anaphylactic reaction after infusion (antibodies in human sera [3]): human sera contain Dextran reacting antibodies of varying types
anaphylactoid purpura (Mice [4]): anaphylactoid purpura appeared in the paws, ears and tail
anaphylactoid inflammation (Mice [4]; iv): acute, serous anaphylactoid inflammation in the ears, snout and tail
anaphylactoid reaction (Rats [5]): edema and erythema of paws, ears and snout
renal lesion or anaphylactic shock (patients): 6 - 8%
anaphylactoid purpura (Rats [7]): anaphylactoid purpura appeared in the paws, ears and tail
anaphylactoid inflammation (Rats [7]; iv): acute, serous anaphylactoid inflammation in the ears, snout and tail
